Series [1] deals with endogenous HBV polymerase activity. Kind of series: HBV drug susceptibility assay (EPA read-out). Particulars: for SI: CC50/EC50, HBV Cell Assay (EPA Read-out); for EC50: HBV Cell Assay (EPA Read-out), collagen plates, read-out: Antiviral Activity (EC50 in μM). Format: cell-based. The procedure: • a) Collagen-I coated cell culture plates were seeded with cells at a density of 0.25-0.5×10^6 cells per well in 2 ml of growth/selection media. • b) Drug stock solutions were made up freshly in 100% DMSO as 200× stocks. Seven 4-fold dilutions of test compound were prepared ranging from 2.5 μM to 0.0006 μM (final). Master drug dilutions were divided into 4 aliquots, and then stored at −20° C. until used. • c) One day after cells were seeded, drug treatments were initiated by adding 10 μl of drug dilution along with 2 ml of fresh growth/selection media. […] The no-drug control wells received 10 μl of DMSO in fresh media. • d) Cells were treated every-other-day with 2 ml of fresh drug combinations/medium for a total of 8 days. Cell lysates were then collected on day 10 as described below and endogenous polymerase assay were performed. Preparation of Nucleocapsid-Containing Lysates for Epa Analysis • a) Two days after the final drug treatment, cells were harvested. • b) Media was carefully aspirated and the cell monolayers were rinsed once with 1 ml of PBS. • c) 1 ml of lysis buffer (50 mM Tris-HCl pH 7.5/150 mM NaCl/5 mM MgCl2/0.2% NP-40) was added to each well. The detergent is required to strip the outer envelope from virions and to allow capture of the inner nucleocapsids. Plates were kept on ice for >30 min. • d) Lysed cells were transferred to 1.5 ml-microfuge tubes. • e) Lysates were clarified by spinning at room temperature for 5 min at 14,000 rpm. • f) Clarified lysates were transferred to fresh tubes and immediately frozen on dry-ice, then stored at −80° C. until endogenous polymerase assays can be performed as described below. Endogenous Polymerase Assay (EPA) of Cell Lysates • a) EPAs were performed essentially as described in Seifer, et al (1998). J. Virol. 72: 2765-2776. […] The detergent is required to enhance permeability of the nucleocapsids. • d) Following digestion with 1 mg/ml of Proteinase K for 1 hour at 37° C., endogenously ^33P-labeled HBV DNA was liberated via phenol/chloroform extraction. • e) The nucleic acids were then precipitated with one volume of 5 M NH4-acetate and 2.5 volumes 100% EtOH, and separated on a 1% native agarose gel in Tris-borate buffer. • f) Gels were blotted onto positively charged nylon membrane overnight at room temperature via capillary transfer in 0.4 N NaOH. • g) Dried membranes were exposed to a phosphoimager screen (GE Healthcare) overnight at room temperature, then scanned (Storm 860, GE Healthcare) and quantitated with ImageQuant software (GE Healthcare). • h) Dose-response curves were generated using XLfit 4.1 software. The mean effective drug concentrations that inhibit endogenous HBV polymerase activity by 50% were calculated from several independent experiments. Cytotoxicity Determination

Series [2] in a line: In vitro cytotoxicity assay in HepG2 cells (MTS). Particulars: human, collagen plates. In kind it is cell-based. Here is the method: (§1) A standard in vitro cytotoxicity assay was performed in HepG2 cells. Cells were exposed to drug for 9 days. Cell viability was determined via MTS staining using a CellTiter 96 Aqueous One Solution cell proliferation assay according to the manufacturer's instructions. • a) HepG2 cells were seeded in 96-well tissue culture plates in 100 μl fresh growth media at 7×10^3 cells per well. • b) Drug stock solutions were made up in 100% DMSO as 400× stock solutions and stored at −20° C. until used. • c) Four hours after cells were plated the drug dilutions were prepared and then added to the cells. Cells received up to 100 μM of drug in a total of 200 μl of fresh growth media containing 0.25% DMSO. Control wells received growth media with 0.25% DMSO growth media. Plates were incubated at 37° C., 5% CO2. • d) Cells were treated every-other-day with fresh growth media and fresh drug dilutions for a total of 8 days as described above. • e) On day 9, cell viability of HepG2 cells was determined by adding 20 μl of MTS CellTiter 96 Aqueous One Solution.

Series [3] deals with wild-type HBV (intracellular nucleocapsids). Kind of series: Anti-HBV activity in HBV nucleocapsids (RI) via endogenous polymerase assay (EPA). Particulars: Hepatitis B virus; wild-type HBV producer cell line, intracellular nucleocapsids, EPA; read-out: RI EC50. In kind it is cell-based. Here is the method: Compounds were tested in an anti-HBV assay. Determination of anti-HBV activity in HBV virions and nucleocapsids via endoenous polymerase assays (EPA)
• 1. 12-well collagen-I coated plates were seeded with producer cells expressing wild-type HBV at a density of 0.5-1×10^6 cells per well in 2 ml growth/selection media. • 2. Drug stock solutions were made up freshly in 100% DMSO as 200× stocks. Five additional 4-fold dilutions were prepared from these 200× stock in 100% DMSO. For each experiment, 4 aliquots of each drug dilution series were stored at −20° C. until used. • 3. Once cells reached confluency (1 day after cells were seeded), drug treatment was initiated by adding 10 μl of drug dilution into 2 ml of fresh growth/selection media. […] The no-drug control wells received only 10 μl of DMSO in fresh media. • 4. Cells were treated every-other-day with 2 ml of fresh drug/medium for a total of 8 days. Cell lysates were then collected on day 10 and subjected to EPA analysis as described below. Preparation of Nucleocapsid-Containing Lysates for Epa Analysis • 1. Cells were grown for 3 to 4 days in 12-well collagen-I coated plates until confluent. • 2. Media was carefully aspirated and the cell monolayers were rinsed once with 1 ml of PBS. • 3. One ml of lysis buffer (50 mM Tris-HCl pH 7.5/150 mM NaCl/5 mM MgCl2/0.2% NP-40) was added to each well. Plates were stored on ice for 30 min to 4 h. • 4. Lysed cells were transferred to 1.5 ml-microfuge tubes. • 5. Lysates were clarified by spinning at 14,000 rpm for 5 min at room temperature. • 6. Clarified lysates were transferred to fresh tubes and immediately frozen on dry-ice, then stored at −80° C. until endogenous polymerase assays were performed as described below. Preparation of Secreted Virions from Supernatant for Epa Analysis • 1. Cells were grown for 3 to 4 days in 12-well collagen-I coated plates until confluent. • 2. Media was carefully aspirated and transferred to 1.5 ml-microfuge tubes. • 3. Supernatants were clarified by spinning at 14,000 rpm for 5 min at room temperature. • 4. Clarified supernatants were transferred to fresh tubes and immediately frozen on dry-ice, then stored at −80° C. until endogenous polymerase assays were performed essentially as described below. Endogenous Polymerase Assay (EPA) of Cell Lysates and Supernatants • 1. EPAs were performed essentially as described by Seifer et al (1998). Intracellular HBV nucleocapsids were immunoprecipitated from the cytoplasmic lysates overnight at 4° C. with a polyclonal rabbit anti-HBcAg antibody and immobilized on protein A sepharose CL-4B beads. Secreted virions were immunoprecipitated from clarified cell supernatants overnight at 4° C. with a monoclonal mouse anti-LS antibody (MA18/7) in the absence of detergent. • 2. Following 3 washes of the immobilized capsids or virions with 1 ml of EPA wash buffer (75 mM NH4Cl, 50 mM Tris-HCl pH 7.4, 1 mM EDTA), endogenous polymerase reactions were initiated by adding 50 μl of detergent-containing EPA cocktail (50 mM Tris-HCl pH7.4, 75 mM NH4Cl, 1 mM EDTA, 20 mM MgCl2, 0.1 mM β-ME, 0.5% NP-40, 100 μM cold dGTP, TTP, dCTP, and 50 nM ^33P-dATP) and incubated overnight at 37° C. The detergent is required to strip the outer envelope from immunoprecipitated virions as well as to enhance permeability of the nucleocapsids. • 3. Following digestion with 1 mg/ml of proteinase K for 1 h at 37° C., endogenously ^33P-labeled HBV DNA was liberated via phenol/chloroform extraction. • 4. The nucleic acids were precipitated with 1 volume of 5M NH4-acetate and 2.5 volumes of 100% EtOH, and then separated on a 1% native agarose gel in Tris-borate-EDTA buffer. • 5. Gels were blotted onto positively charged nylon membrane overnight at room temperature via capillary transfer in 0.4 N NaOH. • 6. Dried membranes were exposed to a Phosphorlmager screen (GE Healthcare) overnight at room temperature, then scanned (Storm 860, GE Healthcare) and quantitated with ImageQuant software (GE Healthcare). • 7. […]

In series [4] the test system is HCV Conl subgenomic replicon (GS4.1 cells). Kind of series: HCV replicon assay (NS4A ELISA, HCV ELISA 2). Format: cell-based. Particulars: Hepatitis C virus; GS4.1 cells, 72 hours, NS4A ELISA; read-out: HCV ELISA 2 EC50. In outline: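 Huh-7 GS4.1 replicon cells treated 72 h at 37° C. with ten 2-fold dilutions from 75 μM (or single 15 μM), 0.5% DMSO; NS4A measured by ELISA, absorbance 492 nm, replicon-free Huh-7 as negative control. EC50 by four-parameter sigmoidal fit. CC50 from same treatment by MTS-type Cell Titer 96 viability.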
(In general: In antiviral work, replicon cells carry a viral genome segment that copies itself.)

Series [5] is described as follows: Cytotoxicity evaluation in GS4.1 cells (Cell Titer 96 AQueous One Solution). Particulars: human, 72 hours. Format: cell-based.
The test system of the next series is HBV wt (HepG2). As to the kind of experiment: Anti-HBV activity in HBV-infected HepG2 cells. In kind it is cell-based. Particulars: N=3. The procedure:
The compound of Example 1 (NM 204) (Hydroxy-tBuSATE N-benzylphosphoramidate derivative of L-ddA) (A550) was contacted with HBV-infected HepG2 cells. EC50 values were measured according to standard techniques.

The next series relates to HepG2 cells. Kind of series: In vitro cytotoxicity assay in HepG2 cells (MTS). Format: cell-based. Particulars: 9 days, collagen plates. Here is the method: as §1

Each structure is given as a SMILES string. Where two headings read alike, the source gives them in different places. Some results are limits rather than exact numbers.

As a reminder, the EC50 is the concentration needed to bring the measured effect to its halfway point. By CC50 is commonly meant the concentration that lowers cell viability or growth by half. The low end stands for greater toxicity to the cells, the high end for lower toxicity to the cells. As usually defined, the melting point is the temperature of the solid-liquid transition.

Turning to `CC(C)(CO)C(=O)SCCOP(=O)(COCCn1cnc2c(N)ncnc21)NCc1ccccc1` (stereo not drawn) [Example B261, Hydroxy-tBuSATE N-benzylphosphonamidate Derivative of PMEA], the SI in series [1] is 1,225. In addition, the results for the EC50 in series [1] (Hepatitis B virus) and in series [3] were 0.016 ± 0.004 µM and below 1000 nM, respectively. Further, the midpoint of cytotoxicity in series [2], the CC50 at 9 days, lay at 19.6 µM.

`CC(C)(CO)C(=O)SCCOP(=O)(NCc1ccccc1)OC[C@H]1O[C@@H](n2ccc(N)nc2=O)[C@]2(C)OC(=O)O[C@H]12` (stereo partly drawn) [Example B302, Hydroxy-tBuSATE N-benzylphosphoramidate 2′,3′-cyclic carbonate Derivative of 2′-C-methylcytidine] came in with a melting point of 100 to 102 °C. Besides, the EC50 in series [4] fell in the range of 1000 to 10000 nM. For the same molecule, the CC50 in series [5] is above 75000 nM.

`Cc1cn([C@@H]2C[C@@H](O)[C@H](CO)O2)c(=O)[nH]c1=O` [LdT] yielded an EC50 in the series with HBV wt (HepG2) of 260 ± 48 nM. Besides, in series [1], the SI is above 273 and the EC50 is 0.366 ± 0.056 µM. In the series with HepG2 cells, this molecule displayed a CC50 above 100 µM.

In the case of `Nc1ncnc2c1ncn2CCOCP(=O)(O)O` [PMEA], the SI in series [1] is on record as above 310. Moreover, the EC50 was 0.328 ± 0.082 µM in series [1] (Hepatitis B virus) and below 1000 nM in series [3]. Moreover, the CC50 at 9 days in series [2] was above 100 µM.
